According to a melting point compilation (Tetko et al.; mined from patent text by program, amines drawn as free bases though some values may be those of a salt):

With `Clc1ccc2c(c1)CCc1cccnc1C2=C1CCN(Cc2cccnc2Cl)CC1` the melting point was 56.6 to 60.2 °C.
Work on `Cc1ccc(-c2nc(CCl)c(C)o2)cc1` yielded a melting point of 91 to 93 °C.
`O=C(Nc1ccc(CCCCn2ccnn2)cc1)c1coc(C=Cc2ccc(C(F)(F)F)cc2)n1` showed a melting point of 183 to 185 °C.
Compound `CC(=O)N1CCc2c(sc(C)c2CCCCN2CCC(c3noc4cc(F)ccc34)CC2)C1` has a melting point of 158 to 160 °C.
For `CCn1ncc2c1ncc1c(=O)[nH]c3ncnn3c12`, the melting point was 175 to 177 °C.
In the case of `CCOC(=O)C(=CNc1sc(-c2ccc(OC)cc2)c(C)c1C(=O)O)C(=O)OCC`, the melting point was 184 to 187 °C.
In the case of `OCC1OC(n2cnc3c(NNC4CCOc5ccccc54)ncnc32)C(O)C1O` (stereo unspecified), the melting point was 125 to 130 °C.
Compound `OCC(O)CN1CCN(C(c2ccccc2)c2ccccc2)CC1` (stereo unspecified) has a melting point of 125 to 126 °C.
Compound `CC(C)(C)OC(=O)NCCCC(c1cc(F)ccc1F)S(=O)(=O)c1ccc(Cl)cc1` (stereo unspecified) has a melting point of 119 to 120 °C.
With `CCc1[nH]c(C)c(C(C)=O)c1C` the melting point was 153 to 160 °C.
Compound `CCC(=O)NCCC1c2cc(OC)ccc2-c2ccc(OC)cc21` has a melting point of 139 to 140 °C.
With `CSC(=N)N(c1ccccc1)c1ccccc1` the melting point was 104 to 106 °C.
For `O=C(O)c1nn(-c2c(Cl)cc(C(F)(F)F)cc2Cl)cc1OC(F)(F)C(F)Cl` (racemic), the melting point was 149 to 159 °C.
For `Clc1ccc(C(c2ccccc2)N2CCN(c3nc4cccc5c4n3CCC5)CC2)cc1` (stereo unspecified), the melting point was 167 to 169 °C.
In the case of `CNc1nc(NCc2ccc(NC(=O)c3ccc(F)cc3)cc2)c2c(C)cccc2n1`, the melting point was 228 to 230 °C.
`COC(=O)C(C)(C)OCC#Cc1cc(C(F)(F)F)ccc1NS(=O)(=O)c1ccc2c(c1)CCN2C(C)=O` gave a melting point of 134 to 136 °C.
Work on `C[C@H](CSC(=O)C(C)(C)C)C(=O)N(CC(=O)O)C1CCCC1` yielded a melting point of 155 to 156 °C.
In the case of `CCCN(CCN1CCN(C(=O)c2ccc3[nH]ccc3c2)CC1)C1CCc2ccc(O)cc2C1` (stereo unspecified), the melting point was 194 to 199 °C.
`COc1c(N2CC3CCC(N)C3C2)c(F)cc2c(=O)n(N)c(=O)n(C3CC3)c12` (stereo unspecified) showed a melting point of 250 to 252 °C.
`c1ccc(OCCSCc2nnc(-c3ccc4[nH]ccc4c3)o2)cc1` showed a melting point of 130 to 132 °C.
Work on `CCN1C(=O)Cc2cc3occc3cc21` yielded a melting point of 112 to 113 °C.
With `Cc1cc(-c2ccc(Cl)cc2)cn2c(-c3nc(-c4cccc(S(N)(=O)=O)c4)no3)cnc12` the melting point was 301 °C.
In the case of `COc1ccc2nc(Cl)c(Cl)nc2c1`, the melting point was 156 to 159 °C.
`Nc1nc(-c2ccc(Cl)cc2F)nc(C(=O)O)c1Cl` gave a melting point of 194 to 196 °C.
`Cc1cc(S(=O)(=O)NCC(C)C)c2c(C)ccc(C(C)C)cc1-2` showed a melting point of 117 to 118 °C.
`CC(C)(C)OC(=O)NC1CCCOCC=CC2CC2(C(=O)NS(=O)(=O)C2CC2)NC(=O)C2CC(OC(=O)C3CCCCC3)CN2C1=O` (stereo unspecified) gave a melting point of 128 to 130 °C.
With `O=c1ccn(-c2ccncc2)nc1-c1ccnn1-c1ccccc1` the melting point was 202 to 203 °C.
With `C=CC[C@@H]1CCC(=O)C[C@H]1c1ccc(OCc2ccccc2)cc1OCc1ccccc1` (relative stereo) the melting point was 104 to 106 °C.
Compound `O=C(O)C(C(=O)O)C1c2ccccc2CCc2ccccc21` has a melting point of 183 °C.
With `OC1CSC(Oc2ccc(-c3ccoc3)nc2)C(O)C1O` (stereo unspecified) the melting point was 132 °C.
In the case of `CC(C)(C)CCc1nn(-c2ccc(F)cc2F)c2c1C1CCC2C1` (stereo unspecified), the melting point was 54 to 57 °C.
In the case of `C[C@@H]1O[C@](/C=C/C2CC2)(C(F)(F)F)c2cc(F)ccc2NC1=O` (relative stereo), the melting point was 180 to 182 °C.
`CC(C)n1nc(-c2sc(C(=O)N(C)C)nc2-c2ccccc2)ccc1=O` gave a melting point of 141 to 144 °C.
In the case of `N#Cc1cccc(-c2ccc(=O)n(Cc3cccc(-c4ncc(O)cn4)c3)n2)c1`, the melting point was 245 to 248 °C.
For `O=c1[nH]c2cc(C(F)(F)F)cc(Br)c2[nH]c1=NO`, the melting point was 221 to 223 °C.
Work on `CC(C)(O)C(=O)Nc1ccc2ccccc2c1` yielded a melting point of 155 to 157 °C.
Work on `COC(=O)c1cccn1Cc1ccccc1N` yielded a melting point of 95 to 97 °C.
In the case of `O=C(Nc1c[nH]nc1C(=O)NCCc1c[nH]c2ccccc12)c1ccccn1`, the melting point was 250 to 251 °C.
`N#Cc1cccc(OC(=O)C(=O)Oc2cccc(C#N)c2)c1` showed a melting point of 187 to 190 °C.
For `N#Cc1cc(C(F)(F)F)cc(Cl)c1N1CN(Br)C(C(F)(F)F)=CC1=O`, the melting point was 166 to 167 °C.
For `CC(F)(F)CC(Br)c1ccccc1S(N)(=O)=O` (stereo unspecified), the melting point was 104 to 105 °C.
Work on `COc1ccc2ccc(NC(=O)c3cccs3)nc2n1` yielded a melting point of 220 °C.
Work on `CCc1ccccc1-c1cccc(Br)c1OCc1cccc(C(=O)NCCO)c1` yielded a melting point of 82.2 to 84.2 °C.
Work on `CCCc1c(OCCCCC(=O)c2ccc3cc(OC)c(OC)cc3c2)ccc(C(=O)O)c1O` yielded a melting point of 177 to 178 °C.
In the case of `Cc1noc(NS(=O)(=O)c2ccccc2)c1-c1ccccc1`, the melting point was 124 to 126 °C.
In the case of `COc1cc(O)c2c(c1)[C@H]1CN(C)CC[C@@H]1CC2=O` (relative stereo), the melting point was > 250 °C.
With `O=C(NCCN(C1CC1)S(=O)(=O)c1ccccc1[N+](=O)[O-])N1CCN2C(=O)OC(c3ccccc3)(c3ccccc3)C2C1` (stereo unspecified) the melting point was 136 to 138 °C.
`CC1(C)C(=O)ON(Cc2cc(Cl)ccc2Cl)C1=O` gave a melting point of 78 to 80 °C.
With `CC(C)c1ccc(N2COCN(C)C2=O)cc1F` the melting point was 45 °C.
`COc1cccc(Cn2cc3c(-c4cccc(C(=O)NCCO)c4)cccc3n2)n1` showed a melting point of 104 to 105 °C.
Work on `CC(C#Cc1cccc(Oc2cccs2)c1)N(O)C(N)=O` (stereo unspecified) yielded a melting point of 110 to 112 °C.
